# In the supplement of paper PMC5762512:
# Tests used:
# Assay in all cases: IC50 cell viability (Alamar Blue, 96 h)
# 10326 = test system: 10326
# Experimental: (§1)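 Cells in log-phase growth were seeded in 96-well plates and treated with drug for 96 h at 37°C using 8-point serial dilutions from 0.0025 to 10 µM. Viability was read by Alamar Blue fluorescence after 6 h and normalised to positive and vehicle (DMSO) controls. IC50 values were fitted in ActivityBase; the value given is the mean of two independent experiments.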
# 11060 = test system: 11060
# Experimental: as §1
# 14169 = test system: 14169
# Experimental: as §1
# 8645 = test system: 8645
# Experimental: as §1
# A549 = test system: A549
# Experimental: as §1
# CAKI-1 = test system: CAKI-1
# Experimental: as §1
# HCC2429 = test system: HCC2429
# Experimental: as §1
# HS-27 = test system: HS-27
# Experimental: as §1
# P896-CL = test system: P896-CL
# Experimental: as §1
# PER-403 = test system: PER-403
# Experimental: as §1
# PER-535 = test system: PER-535
# Experimental: as §1
# PER-536 = test system: PER-536
# Experimental: as §1
# PER-624 = test system: PER-624
# Experimental: as §1
# PER-704 = test system: PER-704
# Experimental: as §1
# PER-712 = test system: PER-712
# Experimental: as §1
# PER-891 = test system: PER-891
# Experimental: as §1
# RPMI2650 = test system: RPMI2650
# Experimental: as §1
# TC797 = test system: TC797
# Experimental: as §1
# TY82 = test system: TY82
# Experimental: as §1
# WI-38 = test system: WI-38
# Experimental: as §1
SMILES,IC50 cell viability 10326,IC50 cell viability 11060,IC50 cell viability 14169,IC50 cell viability 8645,IC50 cell viability (A549),IC50 cell viability (CAKI-1),IC50 cell viability (HCC2429),IC50 cell viability (HS-27),IC50 cell viability (P896-CL),IC50 cell viability (PER-403),IC50 cell viability (PER-535),IC50 cell viability (PER-536),IC50 cell viability (PER-624),IC50 cell viability (PER-704),IC50 cell viability (PER-712),IC50 cell viability (PER-891),IC50 cell viability (RPMI2650),IC50 cell viability (TC797),IC50 cell viability (TY82),IC50 cell viability (WI-38)
COc1cc(Nc2ncc3c(n2)-c2ccc(Cl)cc2C(c2c(F)cccc2OC)=NC3)ccc1C(=O)O [Alisertib],149 nM,168 nM,67.8 nM,327 nM,249 nM,8100 nM,229 nM,5390 nM,2410 nM,38.1 nM,37.4 nM,1580 nM,873 nM,4880 nM,306 nM,> 10000 nM,> 10000 nM,> 10000 nM,> 10000 nM,6140 nM
CC[C@@]1(O)C(=O)OCc2c1cc1n(c2=O)Cc2cc3c(CN(C)C)c(O)ccc3nc2-1 [Topotecan],13.3 nM,14.6 nM,17.7 nM,17.4 nM,118 nM,622 nM,17.5 nM,4570 nM,272 nM,5.01 nM,107 nM,81.6 nM,11.7 nM,312 nM,243 nM,728 nM,391 nM,24.3 nM,116 nM,2480 nM
COc1ccccc1S(=O)(=O)Nc1ccc2c(c1)CN(C)C(=O)N2 [PFI-1],175 nM,804 nM,444 nM,751 nM,287 nM,7020 nM,551 nM,2940 nM,2810 nM,623 nM,2190 nM,5980 nM,2820 nM,2160 nM,1350 nM,5220 nM,> 10000 nM,> 10000 nM,1580 nM,3340 nM
CC[C@@]1([C@@H]2O[C@@H]([C@H]3O[C@@](O)(CO)[C@H](C)C[C@@H]3C)C[C@@H]2C)CC[C@H]([C@]2(C)CC[C@]3(C[C@H](O)[C@@H](C)[C@@H]([C@@H](C)[C@@H](OC)[C@H](C)C(=O)O)O3)O2)O1 [Monensin],817 nM,3040 nM,3510 nM,4650 nM,234 nM,> 10000 nM,4880 nM,235 nM,6830 nM,5580 nM,> 10000 nM,> 10000 nM,1420 nM,9240 nM,7480 nM,5760 nM,> 10000 nM,4080 nM,5070 nM,55 nM
C/C(=C\c1csc(C)n1)[C@@H]1C[C@@H]2O[C@]2(C)CCC[C@H](C)[C@H](O)[C@@H](C)C(=O)C(C)(C)[C@@H](O)CC(=O)O1 [Epothilone B],< 2.5 nM,< 2.5 nM,< 2.5 nM,< 2.5 nM,< 2.5 nM,16.2 nM,< 2.5 nM,< 2.5 nM,3.22 nM,< 2.5 nM,3.27 nM,7.59 nM,< 2.5 nM,3.8 nM,< 2.5 nM,5010 nM,> 10000 nM,3.41 nM,9.79 nM,< 2.5 nM
